{"source": "patent US6358947B1", "about": "(American Home Products Corporation, priority 1999, dated 2002)", "key": {"human PR [1]": {"target": "T1, human PR (Homo sapiens, UniProt P06401)", "T1 sequence (P06401 1-933)": "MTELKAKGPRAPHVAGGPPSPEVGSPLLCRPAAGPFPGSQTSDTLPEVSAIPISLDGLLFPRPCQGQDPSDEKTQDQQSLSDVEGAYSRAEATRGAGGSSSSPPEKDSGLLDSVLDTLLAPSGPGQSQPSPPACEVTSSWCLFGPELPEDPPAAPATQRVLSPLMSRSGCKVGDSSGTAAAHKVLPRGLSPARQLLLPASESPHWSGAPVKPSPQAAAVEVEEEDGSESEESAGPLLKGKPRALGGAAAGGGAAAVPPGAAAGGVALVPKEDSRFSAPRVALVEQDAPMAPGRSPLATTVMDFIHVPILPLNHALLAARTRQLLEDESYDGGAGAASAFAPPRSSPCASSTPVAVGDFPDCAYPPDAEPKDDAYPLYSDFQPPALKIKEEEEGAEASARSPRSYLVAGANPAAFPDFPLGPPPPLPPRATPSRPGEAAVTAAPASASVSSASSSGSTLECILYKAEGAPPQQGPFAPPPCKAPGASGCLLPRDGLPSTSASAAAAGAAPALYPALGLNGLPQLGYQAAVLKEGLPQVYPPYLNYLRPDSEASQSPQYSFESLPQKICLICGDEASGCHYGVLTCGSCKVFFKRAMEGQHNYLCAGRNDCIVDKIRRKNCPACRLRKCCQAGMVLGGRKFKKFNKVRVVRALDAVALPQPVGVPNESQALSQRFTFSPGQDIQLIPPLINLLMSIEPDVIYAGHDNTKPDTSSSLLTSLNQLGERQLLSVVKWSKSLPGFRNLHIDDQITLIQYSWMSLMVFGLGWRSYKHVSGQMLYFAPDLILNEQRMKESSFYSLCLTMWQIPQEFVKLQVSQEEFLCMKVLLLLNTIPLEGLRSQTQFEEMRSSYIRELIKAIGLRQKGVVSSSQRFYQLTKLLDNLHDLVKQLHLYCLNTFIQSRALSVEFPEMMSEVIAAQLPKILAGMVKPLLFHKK", "assay": "Cotransfection assay, PR agonist, CV-1 cells", "type": "cell-based", "settings": "for PR Agonist CV-1 Cells Efficacy: percent maximal response relative to reference agonist", "source_text": "(§1) The cotransfection assay provides a method for identifying functional agonists and partial agonists that mimic, or antagonists that inhibit, the effect of native hormones, and for quantifying their activity for responsive intracellular receptor (IR) proteins. In this regard, the cotransfection assay mimics an in vivo system in the laboratory. Importantly, activity in the cotransfection assay correlates very well with known in vivo activity, such that the cotransfection assay functions as a qualitative and quantitative predictor of a tested compound's in vivo pharmacology.\n(§2) In the cotransfection assay, a cloned cDNA for an IR (e.g., human PR, AR or GR) under the control of a constitutive promoter (e.g., the SV 40 promoter) is introduced by transfection (a procedure to induce cells to take up foreign genes) into a background cell substantially devoid of endogenous IRs. This introduced gene directs the recipient cells to make the IR protein of interest. A second gene is also introduced (cotransfected) into the same cells in conjunction with the IR gene. This second gene, comprising the cDNA for a reporter protein, such as firefly luciferase (LUC), is controlled by an appropriate hormone responsive promoter containing a hormone response element (HRE). This reporter plasmid functions as a reporter for the transcription-modulating activity of the target IR. Thus, the reporter acts as a surrogate for the products (mRNA, then protein) normally expressed by a gene under control of the target receptor and its native hormone.\n(§3) The cotransfection assay can detect small molecule agonists or antagonists of target IRs. Exposing the transfected cells to an agonist ligand compound increases reporter activity in the transfected cells. This activity can be conveniently measured, e.g., by increasing luciferase production, which reflects compound-dependent, IR-mediated increases in reporter transcription. […] Increasing concentrations of a suspected antagonist will decrease the reporter signal (e.g., luciferase production). The cotransfection assay is therefore useful to detect both agonists and antagonists of specific IRs. Furthermore, it determines not only whether a compound interacts with a particular IR, but whether this interaction mimics (agonizes) or blocks (antagonizes) the effects of the native regulatory molecules on target gene expression, as well as the specificity and strength of this interaction."}, "human PR [2]": {"target": "T1, human PR", "assay": "Cotransfection assay, PR antagonist, CV-1 cells", "type": "cell-based", "settings": "for IC50: Table 1, read-out: PR Antagonist CV-1 Cells Potency; for PR Antagonist CV-1 Cells Efficacy: percent maximal response relative to reference antagonist", "source_text": "as §1, §2, §3"}, "hPR-A": {"target": "T2, hPR-A (Homo sapiens, UniProt P06401)", "T2 sequence (P06401 1-769 isoform P06401-2)": "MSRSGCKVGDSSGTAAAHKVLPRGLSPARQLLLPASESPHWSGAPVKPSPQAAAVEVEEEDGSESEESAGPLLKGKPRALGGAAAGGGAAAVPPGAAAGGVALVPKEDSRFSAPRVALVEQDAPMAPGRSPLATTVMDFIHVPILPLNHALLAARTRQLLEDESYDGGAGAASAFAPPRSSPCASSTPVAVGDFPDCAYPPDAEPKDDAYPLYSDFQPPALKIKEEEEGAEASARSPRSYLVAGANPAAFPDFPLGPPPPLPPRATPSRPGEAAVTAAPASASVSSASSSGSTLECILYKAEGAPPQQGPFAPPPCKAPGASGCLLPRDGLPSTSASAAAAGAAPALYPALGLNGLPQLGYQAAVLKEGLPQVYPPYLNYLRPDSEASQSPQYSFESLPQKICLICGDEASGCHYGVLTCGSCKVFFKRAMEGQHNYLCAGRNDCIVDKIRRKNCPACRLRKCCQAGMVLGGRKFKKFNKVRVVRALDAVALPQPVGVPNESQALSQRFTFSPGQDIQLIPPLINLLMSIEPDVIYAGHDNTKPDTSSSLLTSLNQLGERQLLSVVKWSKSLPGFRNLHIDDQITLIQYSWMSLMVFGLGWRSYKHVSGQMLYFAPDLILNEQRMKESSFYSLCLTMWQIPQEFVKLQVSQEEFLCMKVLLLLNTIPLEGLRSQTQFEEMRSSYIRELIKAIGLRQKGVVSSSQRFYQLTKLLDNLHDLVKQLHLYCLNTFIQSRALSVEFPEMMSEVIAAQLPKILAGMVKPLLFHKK", "assay": "PR receptor binding assay"}, "hMR": {"target": "T3, hMR (Homo sapiens, UniProt P08235)", "T3 sequence (P08235 1-984)": "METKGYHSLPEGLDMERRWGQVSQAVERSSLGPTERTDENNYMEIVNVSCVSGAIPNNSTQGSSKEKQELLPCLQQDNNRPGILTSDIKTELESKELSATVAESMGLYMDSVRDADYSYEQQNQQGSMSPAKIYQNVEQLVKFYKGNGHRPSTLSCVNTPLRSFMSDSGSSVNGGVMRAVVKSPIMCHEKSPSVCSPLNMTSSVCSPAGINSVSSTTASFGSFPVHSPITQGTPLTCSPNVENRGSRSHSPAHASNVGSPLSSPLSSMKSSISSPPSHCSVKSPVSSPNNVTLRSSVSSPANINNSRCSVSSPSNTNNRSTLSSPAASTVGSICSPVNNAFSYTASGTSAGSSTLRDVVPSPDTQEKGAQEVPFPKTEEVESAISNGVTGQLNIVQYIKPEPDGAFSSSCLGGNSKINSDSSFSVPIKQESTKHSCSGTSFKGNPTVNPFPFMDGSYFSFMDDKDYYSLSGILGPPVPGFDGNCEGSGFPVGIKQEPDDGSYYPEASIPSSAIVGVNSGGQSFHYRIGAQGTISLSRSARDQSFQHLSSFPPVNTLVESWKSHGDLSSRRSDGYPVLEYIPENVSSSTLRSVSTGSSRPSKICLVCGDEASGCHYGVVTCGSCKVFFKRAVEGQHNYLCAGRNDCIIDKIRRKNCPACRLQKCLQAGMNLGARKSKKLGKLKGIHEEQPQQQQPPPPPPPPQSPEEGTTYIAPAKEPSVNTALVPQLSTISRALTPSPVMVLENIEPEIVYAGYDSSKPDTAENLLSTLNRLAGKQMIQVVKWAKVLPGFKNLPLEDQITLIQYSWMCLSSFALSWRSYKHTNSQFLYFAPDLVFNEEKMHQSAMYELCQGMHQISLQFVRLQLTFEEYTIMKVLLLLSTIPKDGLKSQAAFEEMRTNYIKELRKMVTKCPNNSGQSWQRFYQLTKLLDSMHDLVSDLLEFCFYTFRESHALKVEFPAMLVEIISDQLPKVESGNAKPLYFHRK", "assay": "Cotransfection assay, MR antagonist", "type": "cell-based", "settings": "read-out: MR Potency Antag", "source_text": "as §1, §2, §3"}, "[3]": {"settings": "CV-1 cells, Table 1, read-out: PR Agonist CV-1 Cells Potency"}}, "note": "Like-named read-outs stand apart in the source and are kept apart here.", "data": [{"smiles": "CC1(C)OC(=O)Nc2ccc3c(c21)COc1c(F)cccc1-3", "note": "[Compound 14, 7-Fluoro-4,4-dimethyl-5H-chromeno[3,4-f]-1,3-benzo[d]oxazin-2-one]", "values": [{"measurement": "EC50", "setting": "human PR [1]; [3]", "value": 2500, "unit": "nM"}, {"measurement": "PR Agonist CV-1 Cells Efficacy", "setting": "human PR [1]; CV-1 cells", "value": 30, "unit": "%"}, {"measurement": "IC50", "setting": "human PR [2]", "value": 25, "unit": "nM"}, {"measurement": "PR Antagonist CV-1 Cells Efficacy", "setting": "human PR [2]", "value": 95, "unit": "%"}, {"measurement": "Ki", "setting": "hPR-A", "value": 172, "unit": "nM"}, {"measurement": "IC50", "setting": "hMR", "value": "> 10000", "unit": "nM"}]}, {"smiles": "CC1(C)OC(=O)Nc2ccc3c(c21)COc1c(F)cc(Br)cc1-3", "note": "[Compound 20, 9-Bromo-7-fluoro-4,4-dimethyl-5H-chromeno[3,4-f]-1,3-benzo[d]oxazin-2-one]", "values": [{"measurement": "EC50", "setting": "human PR [1]; [3]", "value": 500, "unit": "nM"}, {"measurement": "PR Agonist CV-1 Cells Efficacy", "setting": "human PR [1]; CV-1 cells", "value": 30, "unit": "%"}, {"measurement": "IC50", "setting": "human PR [2]", "value": 20, "unit": "nM"}, {"measurement": "PR Antagonist CV-1 Cells Efficacy", "setting": "human PR [2]", "value": 80, "unit": "%"}, {"measurement": "Ki", "setting": "hPR-A", "value": 17, "unit": "nM"}, {"measurement": "IC50", "setting": "hMR", "value": "> 10000", "unit": "nM"}]}, {"smiles": "CC1(C)OC(=O)Nc2ccc3c(c21)COc1c(F)cc(C=O)cc1-3", "note": "[Compound 24, 7-fluoro-9-formyl-4,4-dimethyl-5H-chromeno[3,4-f]-1,3-benzo[d]oxazin-2-one]", "values": [{"measurement": "EC50", "setting": "human PR [1]; [3]", "value": "> 10000", "unit": "nM"}, {"measurement": "PR Agonist CV-1 Cells Efficacy", "setting": "human PR [1]; CV-1 cells", "value": "na (na = not active (i.e. efficacy of <20 and potency of >10,000))"}, {"measurement": "EC50", "setting": "human PR [1]; Table 2, read-out: PR Potency Agon", "value": "> 10000", "unit": "nM"}, {"measurement": "IC50", "setting": "human PR [2]", "value": 98, "unit": "nM"}, {"measurement": "PR Antagonist CV-1 Cells Efficacy", "setting": "human PR [2]", "value": 84, "unit": "%"}, {"measurement": "Ki", "setting": "hPR-A", "value": 181, "unit": "nM"}, {"measurement": "IC50", "setting": "hMR", "value": "> 10000", "unit": "nM"}]}, {"smiles": "CC1(C)OC(=O)Nc2ccc3c(c21)COc1c(F)cc(C#N)cc1-3", "note": "[Compound 26, 9-cyano-7-fluoro-4,4-dimethyl-5H-chromeno[3,4-f]-1,3-benzo[d]oxazin-2-one]", "values": [{"measurement": "EC50", "setting": "human PR [1]; [3]", "value": 1000, "unit": "nM"}, {"measurement": "PR Agonist CV-1 Cells Efficacy", "setting": "human PR [1]; CV-1 cells", "value": 60, "unit": "%"}, {"measurement": "IC50", "setting": "human PR [2]", "value": 16, "unit": "nM"}, {"measurement": "PR Antagonist CV-1 Cells Efficacy", "setting": "human PR [2]", "value": 68, "unit": "%"}, {"measurement": "Ki", "setting": "hPR-A", "value": 20, "unit": "nM"}, {"measurement": "IC50", "setting": "hMR", "value": "> 10000", "unit": "nM"}]}, {"smiles": "CC1(C)OC(=O)Nc2ccc3c(c21)COc1c(F)cc(C=NO)cc1-3", "note": "[Compound 25, 7-fluoro-9-hydroxyiminomethyl-4,4-dimethyl-5H-chromeno[3,4-f]-1,3-benzo[d]oxazin-2-one]", "values": [{"measurement": "EC50", "setting": "human PR [1]; [3]", "value": 623, "unit": "nM"}, {"measurement": "PR Agonist CV-1 Cells Efficacy", "setting": "human PR [1]; CV-1 cells", "value": 46, "unit": "%"}, {"measurement": "IC50", "setting": "human PR [2]", "value": 23, "unit": "nM"}, {"measurement": "PR Antagonist CV-1 Cells Efficacy", "setting": "human PR [2]", "value": 87, "unit": "%"}, {"measurement": "Ki", "setting": "hPR-A", "value": 65, "unit": "nM"}, {"measurement": "IC50", "setting": "hMR", "value": "> 10000", "unit": "nM"}]}]}
